Test results as given in patent US20220401514A1, “ANTIMICROBIAL, BACTERIOPHAGE-DERIVED POLYPEPTIDES AND THEIR USE AGAINST GRAM-NEGATIVE AND ACID-FAST BACTERIA” (CONTRAFECT CORPORATION, priority 2019, published 2022).
Where two headings read alike, the source gives them in different places.

Assays:
[1] = tested on: carbapenem-resistant P. aeruginosa clinical isolate CFS-1292; assay: MIC by modified CLSI broth microdilution against P. aeruginosa CFS-1292 (CAA, CAA + human serum); type: cell-based, Pseudomonas aeruginosa
Pseudomonas aeruginosa = assay: microbe, parasite or virus in culture; type: cell-based; details: P. aeruginosa isolates (n per peptide in table)
Enterobacter cloacae = assay: microbe, parasite or virus in culture; type: cell-based
Procedure, shortened: (§1)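 Read-out is the minimal inhibitory concentration of each peptide, measured in serum-supplemented CAA.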

Escherichia coli = assay: microbe, parasite or virus in culture; type: cell-based
Procedure, shortened: as §1

Klebsiella pneumoniae = type: cell-based
Procedure: (§2) Determination of Minimal Inhibitory Concentrations (MIC).
(§3) Additional MIC testing was performed for several peptides against the ESKAPE pathogens Escherichia coli, Enterobacter cloacae, Klebsiella pneumoniae, and Acinetobacter baumannii, in CAA supplemented with human serum (Table D).

Acinetobacter baumannii = assay: microbe, parasite or virus in culture; type: cell-based
S. maltophilia = assay: MIC against S. maltophilia isolates; type: cell-based, Stenotrophomonas maltophilia
Procedure, shortened: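 Chp peptides were tested on a set of S. maltophilia isolates (n = isolates per species), with minimal inhibitory concentrations given in μg/mL.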

[2] = tested on: Pseudomonas aeruginosa, Escherichia coli, Enterobacter cloacae, Klebsiella pneumoniae, and Acinetobacter baumannii; assay: MIC against a range of Gram-negative organisms (statements covering several species); type: cell-based; details: Tables 40-44 isolates
Procedure: as §2, §3

[3] = tested on: carbapenem-resistant bacterial strains; assay: organism not typed; type: cell-based
Text: as §2

[4] = Stability assessment in 100% CAA; type: in vitro ADME; design: unit not given beside the values
Procedure: Stability was assessed after incubation in 100% human serum at 37° C. after 10 minutes, 1 hour, and 2 hours.
Stability assessment was further conducted in 100% CAA and rabbit serum using the same methodology discussed above.

M. smegmatis = assay: 45 hr MIC against M. smegmatis (NTM), Mueller Hinton broth; type: cell-based, Mycobacterium smegmatis
M. fortuitum = assay: 45 hr MIC against M. fortuitum (NTM); type: cell-based, Mycobacterium fortuitum; details: M. fortuitum subsp. Fortuitum da Costa Cruz. ATCC 6841
M. avium = assay: 45 hr MIC against M. avium (NTM); type: cell-based, Mycobacterium avium; details: M. avium Chester ATCC 700898
M. scrofulaceum = assay: 45 hr MIC against M. scrofulaceum (NTM); type: cell-based, Mycobacterium scrofulaceum; details: M. scrofulaceum Prissick and Masson ATCC 19981
M. intracellulare = assay: 45 hr MIC against M. intracellulare (NTM); type: cell-based, Mycobacterium intracellulare; details: M. intracellulare (Cuttino and McCabe) Runyon ATCC 13950
[5] = tested on: P. aeruginosa strain CFS-1292; assay: MIC in presence and absence of NaCl (140 mM); type: cell-based, Pseudomonas aeruginosa
Procedure: Certain Chp peptides were evaluated over a range of physiological NaCl levels and pH values, and were further evaluated for activity in the presence of various divalent cations.

[6] = tested on: P. aeruginosa strain CFS-1292; assay: MIC at pH 6, pH 7 and pH 8; type: cell-based, Pseudomonas aeruginosa
Procedure: The Chp peptides were further evaluated at varying pH levels. The MIC values were determined at pH 6, pH 7, and pH 8 for 18 different Chp peptides against P. aeruginosa strain CFS-1292. […]

[7] = tested on: P. aeruginosa strain CFS-1292; assay: MIC in presence of divalent cations (calcium chloride, magnesium sulfate); type: cell-based, Pseudomonas aeruginosa
Procedure: Next, Chp peptides were evaluated in the presence of different divalent cations. […]; (2) in the presence of 2 mM calcium chloride alone; (3) in the presence of 1 mM magnesium sulfate alone; and (4) in the presence of both 2 mM calcium chloride and 1 mM magnesium sulfate. […]

[8] = tested on: P. aeruginosa strain CFS-1292; assay: MIC in presence and absence of Survanta pulmonary surfactant; type: cell-based, Pseudomonas aeruginosa
[9] = tested on: P. aeruginosa strain CFS-1292; assay: MIC in presence of mouse, rat, rabbit and human serum ([…] each); type: cell-based, Pseudomonas aeruginosa; details: P. aeruginosa CFS-1292
Procedure: The activity of several Chp peptides against P. aeruginosa strain CFS-1292 in animal serum was evaluated. […] Rat, mouse, and rabbit serum were all obtained from pooled gender samples.

[10] = tested on: M. kansasii Hauduroy ATCC 12478; assay: 45 hr MIC against M. kansasii (NTM), Mueller Hinton broth; type: cell-based, Mycobacterium kansasii
[11] = tested on: Mycobacterium tuberculosis strains
Procedure: MIC values for various Chp peptides were determined using the CLSI method for broth microdilution in 96-well microtiter format.
Next, MIC values for various Chp peptides were determined using the CLSI method above for broth microdilution in 96-well microtiter format for two different Mycobacterium tuberculosis strains. The MIC was determined as explained above for the NTM strains.

[12] = E. cloacae isolates (n per peptide in table)
[13] = E. coli isolates (n per peptide in table)
[14] = K. pneumoniae isolates (n per peptide in table)
[15] = A. baumannii isolates (n per peptide in table)
[16] = S. maltophilia isolates (n per peptide in table)

Which “MIC (μg/mL) against CFS-1292 in 100% CAA (1st run/2nd run)” value ([1]; 100% CAA, 1st run or single value) does the source give for “MRRRRLSRRTSRRFFRKGLKVRRRNLRARPMRGGFRI [Unp2]” here?
The value was 0.5 µg/mL.

What about the “MIC (μg/mL) against CFS-1292 in CAA + […] human serum” value ([1]; CAA + […] human serum) of the same sequence?
The value was 0.5 µg/mL.

What about the MIC50 (Pseudomonas aeruginosa) of the same sequence?
The MIC50 was 1 µg/mL.

And the MIC100 (Pseudomonas aeruginosa)?
Its MIC100 is 1 µg/mL.

And the “MIC Range” value (Pseudomonas aeruginosa)?
The value was 0.5 to 2 µg/mL.

What about the MIC50 (Enterobacter cloacae; [12]) of the same sequence?
The MIC50 was 0.25 µg/mL.

What about the MIC100 (Enterobacter cloacae; [12]) of the same sequence?
The MIC100 was 0.5 µg/mL.

What about the “MIC Range” value (Enterobacter cloacae; [12]) of the same sequence?
The value was 0.25 to 2 µg/mL.

What about the MIC (Enterobacter cloacae; Enterobacter cloacae ATCC 13047, CAA supplemented with human serum) of the same sequence?
Its MIC is 16 µg/mL.

And the MIC50 (Escherichia coli; [13])?
The MIC50 was 0.25 µg/mL.

What about the MIC100 (Escherichia coli; [13]) of the same sequence?
The MIC100 was 1 µg/mL.

What about the “MIC Range” value (Escherichia coli; [13]) of the same sequence?
The value was 0.125 to 1 µg/mL.

What about the MIC (Escherichia coli; Escherichia coli ATCC 25922, CAA supplemented with human serum) of the same sequence?
Its MIC is 0.25 µg/mL.

What about the MIC50 (Klebsiella pneumoniae; [14]) of the same sequence?
Its MIC50 is 0.5 µg/mL.

What about the MIC100 (Klebsiella pneumoniae; [14]) of the same sequence?
Its MIC100 is 1 µg/mL.

And the “MIC Range” value (Klebsiella pneumoniae; [14])?
Its value is 0.25 to 1 µg/mL.

And the MIC (Klebsiella pneumoniae; Klebsiella pneumoniae HM-44, CAA supplemented with human serum)?
Its MIC is 0.125 µg/mL.

What about the MIC50 (Acinetobacter baumannii; [15]) of the same sequence?
Its MIC50 is 0.5 µg/mL.

What about the MIC100 (Acinetobacter baumannii; [15]) of the same sequence?
The MIC100 was 0.5 µg/mL.

And the “MIC Range” value (Acinetobacter baumannii; [15])?
The value was 0.25 to 1 µg/mL.

And the MIC (Acinetobacter baumannii; Acinetobacter baumannii ATCC BAA 747, CAA supplemented with human serum)?
The MIC was 1 µg/mL.

And the MIC50 (S. maltophilia; [16])?
Its MIC50 is 0.5 µg/mL.

And the MIC100 (S. maltophilia; [16])?
Its MIC100 is 1 µg/mL.

What about the “MIC Range” value (S. maltophilia; [16]) of the same sequence?
Its value is 0.25 to 2 µg/mL.

And the “activity against S. maltophilia” value (S. maltophilia; Table 45 isolates)?
Its value is “active”.

And the “activity (good = MIC100 of ≤4) against all of P. aeruginosa, K. pneumoniae, A. baumannii, E. cloacae, and E. coli” value [2]?
The value was “good activity”.

And the MIC ([3]; carbapenem-resistant isolate PA19)?
The MIC was 0.5 µg/mL.

And the MIC ([3]; carbapenem-resistant isolate PA20)?
The MIC was 1 µg/mL.

And the MIC ([3]; carbapenem-resistant isolate PA21)?
Its MIC is 2 µg/mL.

And the MIC ([3]; carbapenem-resistant isolate PA22)?
The MIC was 1 µg/mL.

What about the MIC ([3]; carbapenem-resistant isolate PA23) of the same sequence?
Its MIC is 1 µg/mL.

What about the MIC ([3]; carbapenem-resistant isolate PA24) of the same sequence?
Its MIC is 1 µg/mL.

And the MIC ([3]; carbapenem-resistant isolate WLC-452)?
The MIC was 0.5 µg/mL.

And the “MIC (100% CAA)” value [4]?
The value was 0.25.

And the “45 hr MIC” value (M. smegmatis; M. smegmatis MC^2 155, Run #1)?
Its value is 2 µg/mL.

And the “45 hr MIC” value (M. smegmatis; M. smegmatis MC^2 155, Run #2)?
Its value is 4 µg/mL.

What about the “45 hr MIC” value (M. fortuitum) of the same sequence?
The value was 2 µg/mL.

What about the “45 hr MIC” value (M. avium) of the same sequence?
The value was 0.5 µg/mL.

And the “45 hr MIC” value (M. scrofulaceum)?
The value was 4 µg/mL.

And the “45 hr MIC” value (M. intracellulare)?
The value was 1 µg/mL.

What about the “Fold change in MIC” value ([5]; CAA + 140 mM NaCl versus CAA without added NaCl) of the same sequence?
The value was 4.

What about the MIC, CAA + 140 mM NaCl ([5]; CAA + 140 mM NaCl, P. aeruginosa CFS-1292) of the same sequence?
Its MIC, CAA + 140 mM NaCl is 2 µg/mL.

And the MIC, CAA (no added NaCl) ([5]; CAA, no added NaCl, P. aeruginosa CFS-1292)?
The MIC, CAA (no added NaCl) was 0.5 µg/mL.

And the MIC ([6]; CAA media (pH 7))?
The MIC was 0.5 µg/mL.

And the MIC ([6]; pH 6)?
Its MIC is 0.5 µg/mL.

What about the MIC ([6]; pH 7) of the same sequence?
The MIC was 0.5 µg/mL.

What about the MIC ([6]; pH 8) of the same sequence?
Its MIC is 0.5 µg/mL.

And the MIC ([7]; CAA media + 1 mM MgSO4)?
Its MIC is 0.25 µg/mL.

And the MIC ([7]; CAA media + 2 mM CaCl2)?
The MIC was 0.25 µg/mL.

And the MIC ([7]; CAA media + + 1 mM MgSO4)?
The MIC was 0.5 µg/mL.

What about the MIC ([7]; CAA media alone) of the same sequence?
Its MIC is 0.25 µg/mL.

What about the MIC ([8]; CAA media + 0.19 mg/mL Survanta) of the same sequence?
The MIC was 0.5 µg/mL.

What about the MIC ([8]; CAA media + […] Survanta) of the same sequence?
Its MIC is 0.5 µg/mL.

What about the MIC ([8]; CAA media alone) of the same sequence?
Its MIC is 0.5 µg/mL.

And the “MIC BALB/C Mouse Serum” value ([9]; BALB/C mouse serum […])?
The value was over 32 µg/mL.

And the “MIC CAA” value ([9]; CAA)?
The value was 0.5 µg/mL.

What about the “MIC New Zealand White Rabbit Serum” value ([9]; New Zealand White rabbit serum […]) of the same sequence?
The value was 4 µg/mL.

And the “MIC Sprague Dawley Rat Serum” value ([9]; Sprague Dawley rat serum […])?
The value was 8 µg/mL.

And the “MIC Human Serum” value ([9]; human serum […])?
Its value is 0.5 µg/mL.

What about the “45 hr MIC” value [10] of the same sequence?
Its value is 2 µg/mL.

And the MIC ([11]; Mycobacterium tuberculosis (Zopf) Lehmann and Neumann ATCC 25177)?
The MIC was 16 µg/mL.

What about the MIC ([11]; Mycobacterium tuberculosis (Zopf) Lehmann and Neumann ATCC 35817) of the same sequence?
Its MIC is 4 µg/mL.
